Results published in ChEMBL document CHEMBL1201862, “PubChem BioAssay data set” (2004).
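Briefly, cells in 96-well plates were exposed to five compound concentrations for 48 h, and endpoints were estimated by linear interpolation. At the GI50, growth is halved.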 Active and inactive are the calls of the source. No stated cut-off is given here; in the data, active = GI50 up to about 1.1 µM and inactive = higher.

Tests used:
Assay in all cases: DTP human tumour cell line panel, 48 h
SNB-19 = tested on: SNB-19
MDA-MB-231 = tested on: MDA-MB-231
MDA-N = tested on: MDA-N
Malme-3M = tested on: Malme-3M
A549 = tested on: A549
786-0 = tested on: 786-0
SF-295 = tested on: SF-295
HT-29 = tested on: HT-29
SW-620 = tested on: SW-620
OVCAR-5 = tested on: OVCAR-5
SF-268 = tested on: SF-268
SK-MEL-2 = tested on: SK-MEL-2
UACC-257 = tested on: UACC-257
NCI-H23 = tested on: NCI-H23
HCT-116 = tested on: HCT-116
SN12C = tested on: SN12C
KM12 = tested on: KM12
U-251 = tested on: U-251
A498 = tested on: A498
T47D = tested on: T47D
SK-MEL-28 = tested on: SK-MEL-28
COLO 205 = tested on: COLO 205
SNB-75 = tested on: SNB-75
HCC 2998 = tested on: HCC 2998
SK-MEL-5 = tested on: SK-MEL-5
TK-10 = tested on: TK-10
NCI-H460 = tested on: NCI-H460
UACC-62 = tested on: UACC-62
HCT-15 = tested on: HCT-15
OVCAR-4 = tested on: OVCAR-4
CAKI-1 = tested on: CAKI-1
M14 = tested on: M14
HL-60 = tested on: HL-60
UO-31 = tested on: UO-31
Hs-578T = tested on: Hs-578T
K562 = tested on: K562
NCI-H522 = tested on: NCI-H522
SK-OV-3 = tested on: SK-OV-3
MOLT-4 = tested on: MOLT-4
OVCAR-8 = tested on: OVCAR-8
NCI/ADR-RES = tested on: NCI/ADR-RES
ACHN = tested on: ACHN
IGROV-1 = tested on: IGROV-1
CCRF-CEM = tested on: CCRF-CEM
SF-539 = tested on: SF-539
SR = tested on: SR
NCI-H226 = tested on: NCI-H226
MCF7 = tested on: MCF7
EKVX = tested on: EKVX
OVCAR-3 = tested on: OVCAR-3
HOP-62 = tested on: HOP-62
DU-145 = tested on: DU-145
PC-3 = tested on: PC-3
BT-549 = tested on: BT-549
RPMI-8226 = tested on: RPMI-8226
RXF 393 = tested on: RXF 393
MDA-MB-435 = tested on: MDA-MB-435
LOX IMVI = tested on: LOX IMVI
HOP-92 = tested on: HOP-92

COC(=O)NC1(NC(=O)OC)NC(=O)c2cc(OC)c(OC)c(OC)c2N1
GI50 (SNB-19): 44.9 µM (inactive)
GI50 (MDA-MB-231): 36.2 µM (inactive)
GI50 (MDA-N): 3.15 µM (inactive)
GI50 (Malme-3M): 1.33 µM (inactive)
GI50 (A549): < 0.01 µM (active)
GI50 (786-0): 39 µM (inactive)
GI50 (SF-295): 12.4 µM (inactive)
GI50 (HT-29): 36.9 µM (inactive)
GI50 (SW-620): 18.2 µM (inactive)
GI50 (OVCAR-5): > 100 µM (inactive)
GI50 (SF-268): 28.1 µM (inactive)
GI50 (SK-MEL-2): 0.0132 µM (active)
GI50 (UACC-257): > 100 µM (inactive)
GI50 (NCI-H23): 32.7 µM (inactive)
GI50 (HCT-116): 26.1 µM (inactive)
GI50 (SN12C): 41.6 µM (inactive)
GI50 (KM12): 7.19 µM (inactive)
GI50 (U-251): < 0.01 µM (active)
GI50 (A498): 32.2 µM (inactive)
GI50 (T47D): 43.5 µM (inactive)
GI50 (SK-MEL-28): 84.3 µM (inactive)
GI50 (COLO 205): 18.7 µM (inactive)
GI50 (SNB-75): 13.7 µM (inactive)
GI50 (HCC 2998): 9.14 µM (inactive)
GI50 (SK-MEL-5): 11 µM (inactive)
GI50 (TK-10): 38 µM (inactive)
GI50 (NCI-H460): 17.2 µM (inactive)
GI50 (UACC-62): 30.1 µM (inactive)
GI50 (HCT-15): 8.49 µM
GI50 (OVCAR-4): > 100 µM (inactive)
GI50 (CAKI-1): 63.8 µM (inactive)
GI50 (M14): 21.8 µM (inactive)
GI50 (HL-60): 8.15 µM (inactive)
GI50 (UO-31): 46.2 µM (inactive)
GI50 (Hs-578T): 13.3 µM (inactive)
GI50 (K562): 12.3 µM (inactive)
GI50 (NCI-H522): 6.98 µM (inactive)
GI50 (SK-OV-3): 2.62 µM (inactive)
GI50 (MOLT-4): 63.2 µM (inactive)
GI50 (OVCAR-8): 64.4 µM (inactive)
GI50 (NCI/ADR-RES): 15.1 µM (inactive)
GI50 (ACHN): 86.5 µM (inactive)
GI50 (IGROV-1): 53.1 µM (inactive)
GI50 (CCRF-CEM): 82 µM (inactive)
GI50 (SF-539): 23.6 µM (inactive)
GI50 (SR): 17.3 µM (inactive)
GI50 (NCI-H226): 31.1 µM (inactive)
GI50 (MCF7): 30.3 µM (inactive)
GI50 (EKVX): > 100 µM (inactive)
GI50 (OVCAR-3): 54.1 µM (inactive)
GI50 (HOP-62): 21.1 µM (inactive)
GI50 (DU-145): 32 µM (inactive)
GI50 (PC-3): 12.4 µM (inactive)
GI50 (BT-549): 22.4 µM (inactive)

O=c1[nH]nc(Cc2ccc(Cl)cc2)n1/N=C\c1ccc(/C=N/n2c(Cc3ccc(Cl)cc3)n[nH]c2=O)cc1
GI50 (SNB-19): 50.7 µM (inactive)
GI50 (MDA-MB-231): 17.2 µM (inactive)
GI50 (MDA-N): > 100 µM (inactive)
GI50 (Malme-3M): > 100 µM (inactive)
GI50 (A549): > 100 µM (inactive)
GI50 (786-0): 13.3 µM (inactive)
GI50 (SF-295): > 100 µM (inactive)
GI50 (HT-29): > 100 µM (inactive)
GI50 (SW-620): > 100 µM (inactive)
GI50 (OVCAR-5): > 100 µM (inactive)
GI50 (SF-268): 37.9 µM (inactive)
GI50 (SK-MEL-2): 38.5 µM (inactive)
GI50 (UACC-257): > 100 µM (inactive)
GI50 (NCI-H23): > 100 µM (inactive)
GI50 (HCT-116): > 100 µM (inactive)
GI50 (RPMI-8226): > 100 µM (inactive)
GI50 (SN12C): 57.3 µM (inactive)
GI50 (KM12): > 100 µM (inactive)
GI50 (U-251): 26.6 µM (inactive)
GI50 (A498): > 100 µM (inactive)
GI50 (T47D): > 100 µM (inactive)
GI50 (RXF 393): 29.7 µM (inactive)
GI50 (SK-MEL-28): > 100 µM (inactive)
GI50 (COLO 205): > 100 µM (inactive)
GI50 (MDA-MB-435): > 100 µM (inactive)
GI50 (SK-MEL-5): > 100 µM (inactive)
GI50 (TK-10): 0.855 µM (active)
GI50 (NCI-H460): > 100 µM (inactive)
GI50 (UACC-62): > 100 µM (inactive)
GI50 (HCT-15): > 100 µM
GI50 (OVCAR-4): 76.4 µM (inactive)
GI50 (CAKI-1): 33.3 µM (inactive)
GI50 (M14): > 100 µM (inactive)
GI50 (HL-60): > 100 µM (inactive)
GI50 (UO-31): > 100 µM (inactive)
GI50 (LOX IMVI): > 100 µM (inactive)
GI50 (Hs-578T): 35.7 µM (inactive)
GI50 (K562): > 100 µM (inactive)
GI50 (NCI-H522): > 100 µM (inactive)
GI50 (MOLT-4): > 100 µM (inactive)
GI50 (HOP-92): 28.3 µM (inactive)
GI50 (OVCAR-8): 54 µM (inactive)
GI50 (NCI/ADR-RES): 90.2 µM (inactive)
GI50 (ACHN): 29.9 µM (inactive)
GI50 (IGROV-1): > 100 µM (inactive)
GI50 (CCRF-CEM): > 100 µM (inactive)
GI50 (NCI-H226): 96.6 µM (inactive)
GI50 (MCF7): > 100 µM (inactive)
GI50 (EKVX): > 100 µM (inactive)
GI50 (OVCAR-3): 81.7 µM (inactive)
GI50 (HOP-62): 17 µM (inactive)
GI50 (DU-145): > 100 µM (inactive)
GI50 (PC-3): > 100 µM (inactive)
GI50 (BT-549): > 100 µM (inactive)
